According to US20070166547A1, “Use of a layer consisting of hydrophobic linear, or two-dimensional polycyclic aromatics as a barrier layer or an encapsulation and electric components constructed with a layer of this type and comprising organic polymers” (priority 2003, published 2007):

Key:
[1] = test system: embyronic fibroblasts of mouse NIH-3T3; test: Endocellular pHi of fibroblasts by microspectrofluorimetry (FDA, BCECF-AM); type: cell-based; conditions: for rise of pHi: fibroblasts in an attached spread state; for increase of pHi: 20 minutes
Protocol: The effect of the compounds according to the invention on the endocellular pH, embyronic fibroblasts of mouse NIH-3T3 supplied by the All-Russian Collection of Cellular Cultures of the Institute of Cytology of the Russian Academy of Sciences St. Petersburg was investigated. The cells were grown in the DMEM (Sigma) medium containing 2.2 g/l of sodium bicarbonate with addition of 80.0 mkg/ml of gentamicin and 10.0% embryonal veal serum at a temperature of 37° C. in an atmosphere containing 5.0% of carbon dioxide. For these experiments use was also made of a medium buffer with 5.0 mM of HEPES and 15.0 mM of sodium bicarbonate without serum or with addition of 5.0% serum. The cells were calculated with the help of a hemocytometer. A share of the dead cells was determined by colouring trypan blue.
The measurements of the endocellular pHi were carried out with the help of colorants FDA (Sigma) and BCECF-AM (Calbiochem) on a microspectrofluorimeter by a standard technique (Koshevoy Yu. V., Akatov V. S., Grobova M. E. Microspectrofluorimeter for measuring endocellular pH (micro pH)”. Devices and equipment for studies in the field of physical-and-chemical biology and biotechnology. Pushchino, 1990. P. 8-14).
The cells at a temperature of 37° C. were colored within 5 minutes with 5.0 mkM PDA that before the colouring was prepared from a 10.0 mM solution in acetone by dilution for 30 minutes in a phosphatic buffer to 0.1 mM or 2.0 mkM 1.0 mM solution BCECF-AM in DMSO.
The two-wave method of determining pHi was used based on the ratio intensities of fluorescence of the cells on two wavelengths (Akatov V. S. et all), “Endocellular pH and substrate dependence of proliferation of fibroblasts of Chinese hamster, Cytology, 1991, 33 (7), p. 86-94). The fluorescence was excited by light at λ=490 nm, the emission was recorded simultaneously with two photomultipliers on wavelengths λ=535 nm and λ=570 nm. The K-ratio of the fluorescence on two wavelengths was determined with a deduction of the background fluorescence of the medium near the investigated cells for 40-60 individual cells, which are then averaged taking into account the measurement error. A thermostatically controlled table was used that allowed measurements to be conducted at a temperature of 37° C. An account was taken for the photodynamic damage of the pigmented cells during-long-time continuous illumination by excited light. The readings were taken from a section of the preparation exposed to light for not more than 5 minutes.
The calibration curves for determining the absolute pHi values by magnitude K were constructed using the Thomas technique (Thomas J. A., Bushbaum R. N., Zimniak A. w Racker E. “Intracellular pH measurements in Ehrlich ascites tumor cells utilizing spectroscopic probe generated in situ”, Biochemistry, 1979, v. 18, p. 2210-2218), for which case the pigmented cells treated for 5-10 minutes with carboxyacidic nigericyn (Calbiochem) at a concentration of 5-10 mkg/ml was placed in a solution with a high content of potassium—130 mM KCl, 1.0 mM MgCl2, 20.0 mM of HEPES) and with pH values from 6.2 to 7.6. The K values were measured in the media with different pH assuming that pHi of the cells equals to the pH of the medium due to the action of nigericyn, which exchanges potassium ions for protons and at a high content of potassium in the medium counterbalances the pH of the medium and cells. Calibration curves were used based on the fluorescence of same medium with addition of 5.0 mkM of fluorescence or BCECF were used to the control the stability of the of the instrument readings.
The correctness of the technique was confirmed in the experiments on measurements of pH values of cells treated with protonofor monencine raising pH of the cells due to replacement of sodium ions by protons, and by determining the dependence of the change of pHi on the change of the pH of the medium. […]

[2] = Polarographic study of electrochemical reduction (electrochemical activity); type: physicochemical; conditions: for number of electrons participating in the reduction: calculated with the Geirovsky-Ilkovich equation; for i, mkA (polarographic wave current) / −E1/2, V (half-wave potential vs SCE): 37° C., forward trace, average for the group; for i, mkA (polarographic wave current): 9·10^−4 M; for half-wave potential more positive on reverse stroke than on forward stroke: reverse stroke vs forward stroke
Protocol: The study was carried out on a general-purpose polarograph PU-1 with a two-coordinate recorder of the “LKD” type using a three-electrode thermostatically controlled polarographic cell and mercury dripping electrode (MDE) with forced separation of the drop and a dropping period of 0.5 second. A platinum wire was used as an auxiliary electrode and a saturated calomel electrode (SCE) was used as a control electrode.
2.0% solutions of sodium chloride having pH 7.0, 7.2, 7.4, 7.6 were used as a background; the pH values of the background solution were corrected by a solution of sodium hydroxide. The polarographic cell was filled with 5.0 ml of the background solution and for 5 minutes was purged with nitrogen for removing the dissolved oxygen. Then 0.5 ml of solution of the studied substance was added to the background solution, and the polarogram was recorded as a polarographic wave. The concentration of the compounds in the polarographic cell was 9·10^−4 M.
The pH was measured on the pH-meter with an accuracy of ±0.05 pH units. The polarographic measurements were carried out at a temperature of 37° C. The recording of polarograms of the investigated materials was effected under conditions of DC current at a scanning rate of the potential 10.0 mV/s with a active scanning stroke from a potential 0 to −0.5 V and sweep retrace from a −0.5 V to 0. The electric-current sensitivity was 5.0 mkA. The scale by the coordinate of the potentials was 50.0 mV/cm. The values of potentials of the half-wave E1/2 of the investigated materials are given with respect to the SCE potential.
The polarogram parameters such as a limiting current ilim and E1/2 were determined by the graphic method. The number of electrons participating in the reaction was calculated on the basis of the analysis of the polarographic wave using the Geirovsky-Ilkovich equation.

[3] = medium with 10.0% blood serum, 0.02 mkg/ml, suspension
[4] = medium with 10.0% blood serum, 0.2 mkg/ml, suspension
[5] = medium with 10.0% blood serum, 2.0 mkg/ml, suspension
[6] = medium with 10.0% blood serum, 20.0 mkg/ml, suspension
[7] = medium without blood serum, 0.02 mkg/ml
[8] = medium without blood serum, 0.2 mkg/ml
[9] = medium without blood serum, 2.0 mkg/ml
[10] = medium without blood serum, 20.0 mkg/ml
[11] = medium without blood serum, 200 mkg/ml
[12] = medium without blood serum, 1000 mkg/ml

| number of electrons participating in the reduction [2] | i, mkA (polarographic wave current) ([2]; pH 7.0) | −E1/2, V (half-wave potential vs SCE) ([2]; pH 7.0) | i, mkA (polarographic wave current) ([2]; pH 7.2) | i, mkA (polarographic wave current) ([2]; pH 7.4) | −E1/2, V (half-wave potential vs SCE) ([2]; pH 7.4) | i, mkA (polarographic wave current) ([2]; pH 7.6) | −E1/2, V (half-wave potential vs SCE) ([2]; pH 7.6) | Compound | rise of pHi ([1]; 2.0 mkg/ml) | rise of pHi ([1]; 20.0 mkg/ml) | increase of pHi [1, 3] | increase of pHi [1, 4] | increase of pHi [1, 5] | increase of pHi [1, 6] | increase of pHi [1, 7] | increase of pHi [1, 8] | increase of pHi [1, 9] | increase of pHi [1, 10] | increase of pHi [1, 11] | increase of pHi [1, 12] | also measured |
| --- | --- | --- | --- | --- | --- | --- | --- | --- | --- | --- | --- | --- | --- | --- | --- | --- | --- | --- | --- | --- | --- |
| 4.09 | 0.23 ± 0.03 mkA | 0.092 ± 0.02 V | 0.30 ± 0.01 mkA | 0.29 ± 0.02 mkA | 0.092 ± 0.02 V | 0.31 ± 0.02 mkA | 0.09 ± 0.01 V | O=C([O-])c1ccc2c(=O)[nH][nH]c(=O)c2c1.O=C([O-])c1ccc2c(=O)[nH][nH]c(=O)c2c1.[Na+].[Na+] [Compound 18, disodium salt of 6-carboxy-benzo[d]-3H-pyridazine-1,4-dione] | 0.10 unit pHi | 0.07 unit pHi | do not initiate a change of pH | 0.1 unit pH | 0.12 unit pH | do not initiate a change of pH | no effect was found | no effect was found | 0.08 unit pHi | 0.08 unit pHi | no effect was found | no effect was found | −E1/2, V (half-wave potential vs SCE) ([2]; pH 7.2): 0.09 ± 0.01 V; half-wave potential more positive on reverse stroke than on forward stroke [2]: 30.0 mV |
| 3.5 | 0.30 ± 0.05 mkA | 0.08 ± 0.02 V | 0.26 ± 0.02 mkA | 0.30 ± 0.03 mkA | 0.085 ± 0.02 V | 0.30 ± 0.02 mkA | 0.09 ± 0.02 V | O=c1[nH][nH]c(=O)c2ncncc12.[Li] [Compound 35, lithium salt of pyrimido[4,5-d]-6H-pyridazine-5,8-dione] | 0.10 unit pHi | 0.07 unit pHi | do not initiate a change of pH | 0.1 unit pH | 0.12 unit pH | do not initiate a change of pH | no effect was found | no effect was found | 0.08 unit pHi | 0.08 unit pHi | no effect was found | no effect was found | half-wave potential more positive on reverse stroke than on forward stroke [2]: 27.0 mV |

| Compound | number of electrons participating in the reduction [2] | i, mkA (polarographic wave current) ([2]; pH 7.0) | −E1/2, V (half-wave potential vs SCE) ([2]; pH 7.0) | i, mkA (polarographic wave current) ([2]; pH 7.2) | i, mkA (polarographic wave current) ([2]; pH 7.4) | −E1/2, V (half-wave potential vs SCE) ([2]; pH 7.4) | i, mkA (polarographic wave current) ([2]; pH 7.6) | −E1/2, V (half-wave potential vs SCE) ([2]; pH 7.6) | rise of pHi ([1]; 2.0 mkg/ml) | rise of pHi ([1]; 20.0 mkg/ml) | increase of pHi [1, 3] | increase of pHi [1, 4] | increase of pHi [1, 5] | increase of pHi [1, 6] | increase of pHi [1, 7] | increase of pHi [1, 8] | increase of pHi [1, 9] | increase of pHi [1, 10] | increase of pHi [1, 11] | increase of pHi [1, 12] | also measured |
| --- | --- | --- | --- | --- | --- | --- | --- | --- | --- | --- | --- | --- | --- | --- | --- | --- | --- | --- | --- | --- | --- |
| O=c1[nH][nH]c(=O)c2ncccc12.[Na] [Compound 7, sodium salt of pyrido[2,3-d]-6H-pyridazine-5,8-dione] | 3.72 | 0.26 ± 0.04 mkA | 0.11 ± 0.02 V | 0.31 ± 0.02 mkA | 0.27 ± 0.03 mkA | 0.105 ± 0.01 V | 0.30 ± 0.01 mkA | 0.105 ± 0.02 V | 0.10 unit pHi | 0.07 unit pHi | do not initiate a change of pH | 0.1 unit pH | 0.12 unit pH | do not initiate a change of pH | no effect was found | no effect was found | 0.08 unit pHi | 0.08 unit pHi | no effect was found | no effect was found | −E1/2, V (half-wave potential vs SCE) ([2]; pH 7.2): 0.11 ± 0.03 V; half-wave potential more positive on reverse stroke than on forward stroke [2]: 25.0 mV |
